According to patent US20060234971A1 (priority 2005, published 2006):
Several values for one entry are separate records, joined by “and”; a condition that tells them apart may be missing. Equal values may be shown once. Read-outs that look alike come from different tables or passages of the source. Peptide text beside a SMILES is read from it. * marks the point of attachment. Cbz = O=C(OCc1ccccc1)*; CH2F = FC*

Assays:
[1] = system: SMB cells
[2] = system: C2 production in SMB cells; assay: cells; type: cell-based, mouse; conditions: for IC50: read-out: concentration producing 50% inhibition of C2 accumulation (IC50)
[3] = system: C1 production in SMB cells; type: cell-based, mouse
[4] = system: PrP^Sc accumulation in ScN2a cells; conditions: cited from earlier work
[5] = system: prion replication in SMB cells; conditions: mouse, in vivo
[6] = system: calpain-mediated cleavage of PrP in SMB cells; type: cell-based, mouse

In the case of “Cbz-Leu-Leu-Tyr-CH2F [calpain inhibitor IV]”, the “cell toxicity / cell survival” value [1] is reported as “cell toxicity is not triggered”, the “effect on production of C2” value [2] is reported as “apparently complete elimination of C2” and the IC50 [2] is reported as 0.45 µM. The “C1 levels” value [3] was “C1 levels declined” and the “C1 levels higher than control treated SMB cells” value [3] was about 2 fold.

For CC(=O)N[C@@H](CC(C)C)C(=O)N[C@@H](CC(C)C)C(=O)N[C@H](C=O)CCCNC(=N)N [leupeptin], the “PrP^Sc accumulation in ScN2a cells” value [4] is listed as “affected PrP^Sc accumulation”.

With “Z-FG-NHO-BzOME [cathepsin inhibitor III]” the “effect on production of C2” value [2] was “unaffected”.

In the case of CC(C)[C@H](NC(=O)OCc1ccccc1)C(=O)N[C@H](C=O)Cc1ccccc1 [MDL28170, Carbobenzoxy-valinyl-phenylalaninal] (Cbz-Val-Phe-aldehyde), the “cell toxicity / cell survival” value [1] is reported as “cell toxicity is not triggered”, the “prion titers in treated SMB cells” value [5] is reported as “reduced prion titers” and the C2 by immunoblotting [2] is reported as “undetectable”. The “reduction in C2” value [2] was 63±19.7% and 75±6.8%, the IC50 ([2]; Mus musculus, SMB) was about 4 µM and the “C1 levels” value [3] was “increased to levels similar to calpain inhibitor IV-treated SMB cells”.

In the case of “Z-FY(t-Bu)-DMK [cathepsin L inhibitor III]”, the “effect on production of C2” value [2] is reported as “unaffected”.

With calpastatin the “levels of C2 lower than control transfected cells” value [2] was 64±15%.

In the case of CCCC[C@@H](C=O)NC(=O)[C@H](CC(C)C)NC(=O)OCc1ccccc1 [calpeptin, Benzyloxycarbonylleucyl-norleucinal], the “cell toxicity / cell survival” value [1] is reported as “cell toxicity is not triggered” and the “reduction in C2” value [2] is reported as 71±7.1%.

In the case of CNc1ccc2oc(C[C@H]3O[C@@]4(CC[C@H]3C)O[C@H]([C@H](C)C(=O)c3ccc[nH]3)[C@H](C)C[C@H]4C)nc2c1C(=O)O [A23187], the “increase of C2” value [6] is reported as 3.5 fold.

For C[C@H](CCC(=O)O)C[C@H](C)C[C@H](C)C(=O)/C=C(\O)[C@H](C)C[C@H](C)C/C=C/[C@@H](C)[C@@H](O)[C@@H](C)[C@@H](O)C[C@@H]1CC[C@@](C)([C@H]2CC[C@@](C)([C@@H](C)O)O2)O1 [ionomycin], the “increase in C2 levels compared to control” value [6] was about 7 fold.
